Patent US20250145665A1, “MACROCYCLIC PEPTIDES USEFUL AS MODULATORS OF TNF ALPHA” (Bristol-Myers Squibb Company, priority 2023, published 2025)
pIC50: −log10 of the molar value. Starred links: 1 amine or outer side, 2 acyl side, 3 side chain; linkers in the order of their positions; H or OH if unused. Positions of bridges follow the written chain, without caps; N, C: chain ends. Non-standard residues stand in square brackets, D forms with d. Residues, ends and D or L forms follow the SMILES beside them. *: point of attachment. Bip(4'-NHCO-C6H4-3-CH2COOH) = N[C@@H](Cc1ccc(-c2ccc(NC(=O)c3cccc(CC(=O)O)c3)cc2)cc1)C(=O)O; Bip(4'-NHCO-C6H4-4-CH2COOH) = N[C@@H](Cc1ccc(-c2ccc(NC(=O)c3ccc(CC(=O)O)cc3)cc2)cc1)C(=O)O; dArg(Nω-CH2C6H4-3-CH2Gua) = N=C(N)NCc1cccc(CNC(=N)NCCC[C@@H](N)C(=O)O)c1; Bip(4'-NH) = O=C([C@H](Cc1ccc(-c2ccc(N[*:3])cc2)cc1)N[*:1])[*:2]; dArg(ω-(3-HO-benzyl)) = N=C(NCCC[C@@H](N)C(=O)O)NCc1cccc(O)c1; Bip(4'-COOH) = N[C@@H](Cc1ccc(-c2ccc(C(=O)O)cc2)cc1)C(=O)O; Indole3carbonyl(1-CH2COOH) = O=C(O)Cn1cc(C(=O)*)c2ccccc21; Ala(morpholin-4-yl) = N[C@@H](CN1CCOCC1)C(=O)O; Benzoyl(3-OCH2COOH) = O=C(O)COc1cccc(C(=O)*)c1; Bip = N[C@@H](Cc1ccc(-c2ccccc2)cc1)C(=O)O; Cha = N[C@@H](CC1CCCCC1)C(=O)O; Tle = CC(C)(C)[C@H](N)C(=O)O; Sar = CNCC(=O)O

These molecules were tested against TNFα (Homo sapiens, UniProt P01375) (assay: TNF-Induced HEK-Blue Assay). Settings: not given.
Format: cell-based

TNFα, sequence (P01375 77-233 limits assumed): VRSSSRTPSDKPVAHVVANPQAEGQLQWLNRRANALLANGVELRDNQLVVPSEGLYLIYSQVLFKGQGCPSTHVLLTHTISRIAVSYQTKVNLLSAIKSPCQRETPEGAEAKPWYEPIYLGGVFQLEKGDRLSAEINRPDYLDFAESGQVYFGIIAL

Structure (SMILES) | pIC50
CC(C)C[C@@H]1NC(=O)[C@H](CCCNC(=N)N)NC(=O)[C@H](C(C)C)NC(=O)[C@@H]2CCCN2C(=O)[C@H](C(C)C)NC(=O)[C@@H](CCCNC(=N)NCc2cccc(CNC(=N)N)c2)NC(=O)[C@H](CC(=O)O)NC(=O)[C@@H]2CCCN2C(=O)CN(C)C(=O)[C@H](Cc2ccc(-c3ccc(NC(=O)c4cn(CC(=O)O)c5ccccc45)cc3)cc2)NC(=O)[C@H](Cc2ccc(-c3ccccc3)cc2)NC(=O)[C@H](CN2CCOCC2)NC(=O)CSC[C@@H](C(=O)NCC(N)=O)NC1=O [Example 569] ({CH2CO}-[Ala(morpholin-4-yl)][Bip][Bip(4'-NH)](Indole3carbonyl(1-CH2COOH))[Sar]PD[dArg(Nω-CH2C6H4-3-CH2Gua)]VPVRLCG-NH2; thioether N-13) | > 7.30

Same assay, conditions: HEK-Blue-CD40L cells, NF-kB-driven secreted alkaline phosphatase reporter; TNFα 0.5 ng/ml; 18 h; read-out: TNF induced HEK-Blue assay IC50 value

Structure (SMILES) | pIC50
CC(C)C[C@@H]1NC(=O)[C@H](CCCNC(=N)N)NC(=O)[C@H](C(C)C)NC(=O)[C@@H]2CCCN2C(=O)[C@H](C(C)C)NC(=O)[C@@H](CCCNC(=N)NCc2cccc(O)c2)NC(=O)[C@H](CC(=O)O)NC(=O)[C@@H]2CCCN2C(=O)CN(C)C(=O)[C@H](Cc2ccc(-c3ccc(NC(=O)c4cccc(CC(=O)O)c4)cc3)cc2)NC(=O)[C@H](Cc2ccc(-c3ccccc3)cc2)NC(=O)[C@H](CN2CCOCC2)NC(=O)CSC[C@@H](C(=O)NCC(N)=O)NC1=O [Example 566] ({CH2CO}-[Ala(morpholin-4-yl)][Bip][Bip(4'-NHCO-C6H4-3-CH2COOH)][Sar]PD[dArg(ω-(3-HO-benzyl))]VPVRLCG-NH2; thioether N-13) | > 7.30
CC(C)C[C@@H]1NC(=O)[C@H](CCCNC(=N)N)NC(=O)[C@H](C(C)C)NC(=O)[C@@H]2CCCN2C(=O)[C@H](C(C)C)NC(=O)[C@@H](CCCNC(=N)NCc2cccc(O)c2)NC(=O)[C@H](CC(=O)O)NC(=O)[C@@H]2CCCN2C(=O)CN(C)C(=O)[C@H](Cc2ccc(-c3ccc(NC(=O)c4ccc(CC(=O)O)cc4)cc3)cc2)NC(=O)[C@H](Cc2ccc(-c3ccccc3)cc2)NC(=O)[C@H](CN2CCOCC2)NC(=O)CSC[C@@H](C(=O)NCC(N)=O)NC1=O [Example 567] ({CH2CO}-[Ala(morpholin-4-yl)][Bip][Bip(4'-NHCO-C6H4-4-CH2COOH)][Sar]PD[dArg(ω-(3-HO-benzyl))]VPVRLCG-NH2; thioether N-13) | > 7.30
CC(C)C[C@@H]1NC(=O)[C@H](CCCNC(=N)N)NC(=O)[C@H](C(C)C)NC(=O)[C@@H]2CCCN2C(=O)[C@H](C(C)C)NC(=O)[C@@H](CCCNC(=N)NCc2cccc(O)c2)NC(=O)[C@H](CC(=O)O)NC(=O)[C@@H]2CCCN2C(=O)CN(C)C(=O)[C@H](Cc2ccc(-c3ccc(NC(=O)c4cccc(OCC(=O)O)c4)cc3)cc2)NC(=O)[C@H](Cc2ccc(-c3ccccc3)cc2)NC(=O)[C@H](CN2CCOCC2)NC(=O)CSC[C@@H](C(=O)NCC(N)=O)NC1=O [Example 568] ({CH2CO}-[Ala(morpholin-4-yl)][Bip][Bip(4'-NH)](Benzoyl(3-OCH2COOH))[Sar]PD[dArg(ω-(3-HO-benzyl))]VPVRLCG-NH2; thioether N-13) | > 7.30
CC[C@H](C)[C@@H]1NC(=O)[C@@H](CCCNC(=N)N)NC(=O)[C@H](CC(=O)O)NC(=O)[C@@H]2CCCN2C(=O)CN(C)C(=O)[C@H](Cc2ccc(-c3ccc(NC(=O)c4cccc(OCC(=O)O)c4)cc3)cc2)NC(=O)[C@H](Cc2ccc(-c3ccc(C(=O)O)cc3)cc2)NC(=O)[C@H](CC2CCCCC2)NC(=O)CSC[C@@H](C(=O)NCC(N)=O)NC(=O)[C@H](CC(C)C)NC(=O)[C@H](Cc2cnc[nH]2)NC(=O)[C@H](C(C)C)NC(=O)[C@@H]2CCCN2C1=O [Example 573] ({CH2CO}-[Cha][Bip(4'-COOH)][Bip(4'-NH)](Benzoyl(3-OCH2COOH))[Sar]PD[dR]IPVHLCG-NH2; thioether N-13) | 6.70 to 7.30
CC[C@H](C)[C@@H]1NC(=O)[C@@H](CCCNC(=N)N)NC(=O)[C@H](CC(=O)O)NC(=O)[C@@H]2CCCN2C(=O)CN(C)C(=O)[C@H](Cc2ccc(-c3ccc(NC(=O)c4cccc(OCC(=O)O)c4)cc3)cc2)NC(=O)[C@H](Cc2ccc(-c3ccc(C(=O)O)cc3)cc2)NC(=O)[C@H](C(C)(C)C)NC(=O)CSC[C@@H](C(=O)NCC(N)=O)NC(=O)[C@H](CC(C)C)NC(=O)[C@H](Cc2cnc[nH]2)NC(=O)[C@H](C(C)C)NC(=O)[C@@H]2CCCN2C1=O [Example 574] ({CH2CO}-[Tle][Bip(4'-COOH)][Bip(4'-NH)](Benzoyl(3-OCH2COOH))[Sar]PD[dR]IPVHLCG-NH2; thioether N-13) | > 7.30

Second part, the molecule after the results:

pIC50 | Structure (SMILES)
6.70 to 7.30 | CC(C)C[C@@H]1NC(=O)[C@H](CCCNC(=N)N)NC(=O)[C@H](C(C)C)NC(=O)[C@@H]2CCCN2C(=O)[C@H](C(C)C)NC(=O)[C@@H](CCCNC(=N)NCc2cccc(CNC(=N)N)c2)NC(=O)[C@H](CC(=O)O)NC(=O)[C@@H]2CCCN2C(=O)CN(C)C(=O)[C@H](Cc2ccc(-c3ccc(NC(=O)c4cccc(CC(=O)O)c4)cc3)cc2)NC(=O)[C@H](Cc2ccc(-c3ccccc3)cc2)NC(=O)[C@H](CN2CCOCC2)NC(=O)CSC[C@@H](C(=O)NCC(N)=O)NC1=O [Example 570] ({CH2CO}-[Ala(morpholin-4-yl)][Bip][Bip(4'-NHCO-C6H4-3-CH2COOH)][Sar]PD[dArg(Nω-CH2C6H4-3-CH2Gua)]VPVRLCG-NH2; thioether N-13)
6.70 to 7.30 | CC(C)C[C@@H]1NC(=O)[C@H](CCCNC(=N)N)NC(=O)[C@H](C(C)C)NC(=O)[C@@H]2CCCN2C(=O)[C@H](C(C)C)NC(=O)[C@@H](CCCNC(=N)NCc2cccc(CNC(=N)N)c2)NC(=O)[C@H](CC(=O)O)NC(=O)[C@@H]2CCCN2C(=O)CN(C)C(=O)[C@H](Cc2ccc(-c3ccc(NC(=O)c4ccc(CC(=O)O)cc4)cc3)cc2)NC(=O)[C@H](Cc2ccc(-c3ccccc3)cc2)NC(=O)[C@H](CN2CCOCC2)NC(=O)CSC[C@@H](C(=O)NCC(N)=O)NC1=O [Example 571] ({CH2CO}-[Ala(morpholin-4-yl)][Bip][Bip(4'-NHCO-C6H4-4-CH2COOH)][Sar]PD[dArg(Nω-CH2C6H4-3-CH2Gua)]VPVRLCG-NH2; thioether N-13)
> 7.30 | CC(C)C[C@@H]1NC(=O)[C@H](CCCNC(=N)N)NC(=O)[C@H](C(C)C)NC(=O)[C@@H]2CCCN2C(=O)[C@H](C(C)C)NC(=O)[C@@H](CCCNC(=N)NCc2cccc(CNC(=N)N)c2)NC(=O)[C@H](CC(=O)O)NC(=O)[C@@H]2CCCN2C(=O)CN(C)C(=O)[C@H](Cc2ccc(-c3ccc(NC(=O)c4cccc(OCC(=O)O)c4)cc3)cc2)NC(=O)[C@H](Cc2ccc(-c3ccccc3)cc2)NC(=O)[C@H](CN2CCOCC2)NC(=O)CSC[C@@H](C(=O)NCC(N)=O)NC1=O [Example 572] ({CH2CO}-[Ala(morpholin-4-yl)][Bip][Bip(4'-NH)](Benzoyl(3-OCH2COOH))[Sar]PD[dArg(Nω-CH2C6H4-3-CH2Gua)]VPVRLCG-NH2; thioether N-13)
6.70 to 7.30 | CC[C@H](C)[C@@H]1NC(=O)[C@@H](CCCNC(=N)N)NC(=O)[C@H](CC(=O)O)NC(=O)[C@@H]2CCCN2C(=O)CN(C)C(=O)[C@H](Cc2ccc(-c3ccc(NC(=O)c4cccc(CC(=O)O)c4)cc3)cc2)NC(=O)[C@H](Cc2ccc(-c3ccc(C(=O)O)cc3)cc2)NC(=O)[C@H](C(C)(C)C)NC(=O)CSC[C@@H](C(=O)NCC(N)=O)NC(=O)[C@H](CC(C)C)NC(=O)[C@H](Cc2cnc[nH]2)NC(=O)[C@H](C(C)C)NC(=O)[C@@H]2CCCN2C1=O [Example 575] ({CH2CO}-[Tle][Bip(4'-COOH)][Bip(4'-NHCO-C6H4-3-CH2COOH)][Sar]PD[dR]IPVHLCG-NH2; thioether N-13)
